According to the NIST ThermoML archive (doi:10.1016/j.jct.2010.08.006):

How the values were obtained:
[1] = 101.33 kPa, Liquid, Vibrating tube method
[2] = xn = mol fraction of the nth substance listed; conditions: 101 kPa, Liquid, Vibrating tube method

C1CCOC1 [tetrahydrofuran]
[1]
Conditions | mass density [kg/m3]
278.15 K | 903.71
288.15 K | 892.94
298.15 K | 882.04
308.15 K | 871.01
318.15 K | 859.84

C1CCOC1 [tetrahydrofuran] + O
mass density [kg/m3], [2]
Conditions | 278.15 K | 288.15 K | 298.15 K | 308.15 K | 318.15 K
x2 = 0.001775 | 903.78 | 893.01 | 882.11 | 871.08 | 859.91
x2 = 0.003887 | 903.87 | 893.1 | 882.19 | 871.16 | 859.99
x2 = 0.005362 | 903.93 | 893.16 | 882.25 | 871.23 | 860.05
x2 = 0.007677 | 904.02 | 893.25 | 882.35 | 871.32 | 860.15
x2 = 0.01096 | 904.16 | 893.38 | 882.48 | 871.45 | 860.28
x2 = 0.0142 | 904.29 | 893.52 | 882.61 | 871.58 | 860.41
x2 = 0.01729 | 904.42 | 893.65 | 882.74 | 871.71 | 860.53
x2 = 0.01971 | 904.52 | 893.75 | 882.84 | 871.81 | 860.63
x2 = 0.02568 | 904.78 | 894 | 883.09 | 872.06 | 860.88
x2 = 0.03393 | 905.13 | 894.35 | 883.44 | 872.41 | 861.22
x2 = 0.04278 | 905.52 | 894.74 | 883.83 | 872.79 | 861.6

[2H]O[2H] [water-d2] + C1CCOC1
mass density [kg/m3], [2]
Conditions | 278.15 K | 288.15 K | 298.15 K | 308.15 K | 318.15 K
x1 = 0.001848 | 903.83 | 893.06 | 882.16 | 871.13 | 859.96
x1 = 0.003689 | 903.96 | 893.18 | 882.28 | 871.25 | 860.08
x1 = 0.005866 | 904.1 | 893.33 | 882.43 | 871.4 | 860.22
x1 = 0.008339 | 904.27 | 893.5 | 882.59 | 871.56 | 860.38
x1 = 0.01068 | 904.43 | 893.65 | 882.75 | 871.72 | 860.54
x1 = 0.01396 | 904.65 | 893.88 | 882.97 | 871.93 | 860.76
x1 = 0.01768 | 904.91 | 894.13 | 883.23 | 872.19 | 861
x1 = 0.0203 | 905.09 | 894.31 | 883.4 | 872.36 | 861.18
x1 = 0.02398 | 905.35 | 894.57 | 883.66 | 872.62 | 861.43
x1 = 0.02882 | 905.69 | 894.9 | 883.99 | 872.95 | 861.76
x1 = 0.03403 | 906.06 | 895.27 | 884.36 | 873.31 | 862.11
x1 = 0.03668 | 906.25 | 895.46 | 884.55 | 873.49 | 862.3
x1 = 0.04255 | 906.67 | 895.88 | 884.96 | 873.91 | 862.71
